Each structure is given as a SMILES string. Like-named read-outs stand apart in the source and are kept apart here.

These results are taken from patent US10457891B2, “Organic compounds” (Givaudan, S.A., priority 2013, dated 2019).

For data set [1], the system named is hepatocytes from male rats (Sprague Dawley). The experiment in a line: In vitro metabolism study in rat hepatocytes in suspension, GC-MS. Conditions: for Residual concentration: male, Sprague Dawley, rat, 4 h, 100 μM. The procedure: In order to study in vitro metabolism in rat hepatocytes, Lilial™ and compounds of the present invention may be incubated in the presence of rat hepatocytes in suspension. Reduction in the concentration of Lilial™ and the compounds of the present invention and formation of any of the corresponding benzoic acid derivatives may be analysed by GC-MS.
Cryopreserved hepatocytes from male rats (Sprague Dawley; Lifetechnologies) were defrozen, washed in Cyropreserved Hepatocytes Recovery Medium (CHRM; Lifetechnologies) and suspended in Williams E Medium (WEM; Lifetechnologies). Lilial™, or the compounds of the present invention (final concentration: 100 μM) were added to the cells (1×10^6 viable cells/ml) and suspensions were incubated up to 4 hours at 37° C. on a shaker in duplicate. Metabolism of testosterone was monitored as positive control. Decrease of the test compounds and formation of the corresponding benzoic acid derivative was determined by GC-MS analysis of methyl esters formed after derivatisation with trimethylsilyl diazomethane (Sigma-Aldrich) in methanol. The test compounds react with diazomethane yielding a methyl ketone which was used for the quantification of Lilial™ and the compound of formula (I). Metabolism was stopped with ice cold 1 M HCl, samples were extracted with tert-butyl methyl ether (MTBE) and analysed by GC-MS. Incubations containing testosterone as control were also stopped with ice cold 1 M HCl, centrifuged to separate the cells, filtrated and the decrease of testosterone analysed by LC-MS.

A further data set has as its system mice. Conditions: mouse, in vivo; cited from earlier work.
The subject of data set [2] is reproductive organs of male rats. Conditions: rat, in vivo; cited from earlier work.
In data set [3] the test system is reproductive organs of dogs. The conditions noted are these: dog, in vivo; cited from earlier work.
The next data set concerns guinea-pigs. Conditions: guinea pig, in vivo; cited from earlier work.
The next data set concerns primates. The conditions noted are these: cited from earlier work.

The molecule `Cc1cc(CC(C)C)ccc1CCC=O` displayed a Residual concentration in data set [1] of 0 µM. Still for that read-out and setting: then `Cc1cc(CCC(C)C)ccc1CCC=O`, with 0 µM; and `Cc1cc(CCCC(C)C)ccc1CCC=O`, with 0 µM; and `Cc1cc(CC(C)C)cc(C)c1CCC=O`, with 0 µM.

With `Cc1ccc(CC(C)C)cc1CC(C)C=O` (centres unmarked), in data set [1], the Residual concentration is 0 µM. Still for that read-out and setting: for `Cc1ccc(CCCC(C)C)cc1CCC=O` the value was 2.4 µM. `CC(C=O)Cc1ccc(C(C)(C)C)cc1` (centres unmarked) [Lilial™, 3-(4-tert-butylphenyl)-2-methylpropanal]: the Toxic effects entry with mice, in the data set on guinea-pigs and in the data set on primates was “No effects” throughout. The “Toxic effects on reproductive organs” value in data set [2] and in data set [3] was “toxic effects on the reproductive organs” throughout. For the same molecule, the “Decrease / metabolism of compound in rat hepatocytes” value in data set [1] was “metabolised rapidly”. The same molecule yielded a Residual concentration in data set [1] of 0 µM. For the molecule `C[C@]12CC[C@H]3[C@@H](CCC4=CC(=O)CC[C@@]43C)[C@@H]1CC[C@@H]2O` [testosterone], the “Decrease / metabolism of compound in rat hepatocytes” value in data set [1] (rat hepatocytes, up to 4 hours at 37° C.) is on record as “rapid decrease”.
